Test results as given in patent US20240084305A1, “MODULATORS OF CELL PROLIFERATION AND USES THEREOF” (Kumquat Biosciences Inc., priority 2020, published 2024).

Assays:
Type in all cases: cell-based
[1] = system: A427, ASPC1, Panc04.03, Ls174T, Ls513, AGS and HEClA cancer cell lines (KRAS G12D mutation); assay: 3D proliferation assay (ultra-low attachment plates), small molecule Kras12D inhibitor plus second inhibitor, Bliss independence model
Text: This study explores the inhibition of a variety types of cancer cells (e.g., KRAS G12D driven tumor cells) using a combination of small molecule based Kras12D inhibitor and SOS inhibitor. Cell lines from multiple indications were utilized and include the A427 (a non-small cell lung cancer, “NSCLC”), ASPC1 and Panc04.03 (both pancreatic cancer), Ls174T and Ls513 (both colorectal cancer), AGS (a gastric cancer), and HEClA (an endometrial cancer cell line). All cell lines contain a KRAS G12D mutation. The seven cancer cell lines were cultured in vitro in a 3D proliferation assay where cells are grown in ultra-low attachment surface cell culture plates in RPMI medium containing ˜10% FBS. Cells were incubated with different concentrations of SOS inhibitor (e.g., 10 uM, 3 uM, or 1 uM) and with different concentrations of a Kras12D inhibitors (either Compound A, Compound B, or Compound C, e.g., 0.1 uM, 0.3 uM, 1.0 uM, 3.0 uM) for a period of 5 days. […] The degree of synergy for the combination across cell lines was calculated by using the Bliss independence model as described herein. […] The greater the departure from Bliss indicates more profound synergy: ≤0 indicates no synergism, 0.05-0.1 indicates mild synergy, 0.1-0.2 indicates moderate synergy, and >0.2 indicates robust synergy.
This study explores the inhibition of a variety types of cancer cells (e.g., KRAS G12D driven tumor cells) using a combination of small molecule based Kras12D inhibitor and SHP2 inhibitor. Cell lines from multiple indications were utilized and include the A427 (a non-small cell lung cancer, “NSCLC”), ASPC1 and Panc04.03 (both pancreatic cancer), Ls174T and Ls513 (both colorectal cancer), AGS (a gastric cancer), and HEClA (an endometrial cancer cell line). All cell lines contain a KRAS G12D mutation. The seven cancer cell lines were cultured in vitro in a 3D proliferation assay where cells are grown in ultra-low attachment surface cell culture plates in RPMI medium containing 10% FBS. Cells were incubated with different concentrations of SHP2 inhibitor (e.g., 10 uM, 3 uM, or 1 uM) and with different concentrations of a Kras12D inhibitors (either Compound A, Compound B, or Compound C, e.g., 0.1 uM, 0.3 uM, 1.0 uM, 3.0 uM) for a period of 5 days. […] The degree of synergy for the combination across cell lines was calculated by using the Bliss independence model as described in the preceding examples.
The study explores the inhibition of a variety types of cancer cells (e.g., KRAS G12D driven tumor cells) using a combination of small molecule based Kras12D inhibitor and EGFR inhibitor.

[2] = system: A427, ASPC1 and Ls513 cancer cell lines (KRAS G12D mutation); assay: cell growth inhibition in 3D suspension culture after lentiviral shRNA KRAS knockdown plus inhibitor, Bliss independence model; conditions: for degree of synergy of cell growth inhibition (excess over Bliss): all cell lines tested
Text: This study explores the inhibition of a variety types (e.g., Kras G12D driven tumor cells) of cancer cells using a combination of nucleic-acid based Kras12D inhibitor and SOS inhibitor. Cell lines utilized include A427, a non-small cell lung cancer (NSCLC), ASPC1, a pancreatic cancer, and Ls513, colorectal cancer cell line. All three cell lines contain a KRAS G12D mutation. The cancer cell lines were adherently cultured in vitro and transduced with lentiviral particles packaged with shRNAs targeting either KRAS or negative control gene Luciferase.
Amphotropic lentiviruses were produced by the co-transfection of 293FT cells and were packaged using the ViraPower lentiviral expression system (ThermoFisher Scientific). Lentiviral shRNA clones targeting luciferase (as sh-Ctrl) and KRAS were obtained from Sigma in the MISSION pLKO.1-puro vector with clone IDs as follows: shKRAS #1: TRCN0000033262, NM_033360.2-509s1c1, shKRAS #2: TRCN0000033260, NM_033360.2-407s1c1, and the Luciferase shRNA control plasmid DNA (Cat #SHC007, Sigma). Viral supernatants were filtered through a 0.45 µm filter and supplemented with […] of polybrene (Sigma) and added to 70% confluent cells pre-plated in six-well dishes. Plates were spinfected for 1 h under 600×g at 37° C. centrifugation. Cells were subsequently washed with PBS and allowed to rest 48 hours in fresh culture media at 37° C. Next, cells were reseeded as 3D suspensions (ultra-low adherent plates) into 384 well plates in RPMI medium containing 10% FBS. Approximately 24 hrs later, 10 uM SOS inhibitor as described herein or DMSO (as negative control) was added to the cell cultures for a period of about 5 days. […] The degree of synergy for the combination across cell lines was calculated by using the Bliss independence model. […] The greater the departure from Bliss indicates more profound synergy: <0 is no synergism, 0.05-0.1 is mild synergy, 0.1-0.2 moderate synergy, and >0.2 is robust synergy.
Amphotropic lentiviruses were produced in the same manner as described in the preceding Example 6. 1 uM SHP2 inhibitor as described herein or DMSO (as negative control) was added to the cell cultures for a period of about 5 days. […] The degree of synergy for the combination across cell lines was calculated by using the Bliss independence model. […] The greater the departure from Bliss indicates more profound synergy: <0 is no synergism, 0.05-0.1 is mild synergy, 0.1-0.2 moderate synergy, and >0.2 is robust synergy.
Amphotropic lentiviruses were produced in the same manner as described in the preceding Example 6. […] The concentration of the respective EGFR inhibitors utilized in this cell assay was chosen to be within the range corresponding to achievable exposures and pharmacokinetics of a recommended and clinically relevant doses applied in human. […] The degree of synergy for the combination across cell lines was calculated by using the Bliss independence model as exemplified in the preceding Example 6.
Amphotropic lentiviruses were produced in the same manner as described in the preceding Example 6. 3 nM of Trametinib or DMSO (negative control) was added to the cell cultures for a period of about 5 days. The concentration of the MEK inhibitor utilized in this cell assay was chosen to be within the range corresponding to achievable exposures and pharmacokinetics of a recommended and clinical relevant dose applied in human. […] The degree of synergy for the combination across cell lines was calculated by using the Bliss independence model as exemplified in the preceding Example 6.
Amphotropic lentiviruses were produced in the same manner as described in the preceding Example 6.

[3] = system: A427, ASPC1, Panc04.03, Ls174T, Ls513, AGS and HEClA cancer cell lines (KRAS G12D mutation); assay: 3D proliferation assay (ultra-low attachment plates), small molecule Kras12D inhibitor plus second inhibitor, Bliss independence model; conditions: for cell growth inhibition: across the cell line panel; for maximal cell growth inhibition, on average: average over cell line panel

C#Cc1cccc(Nc2ncnc3cc(OCCOC)c(OCCOC)cc23)c1 [erlotinib] was tested, and the cell growth inhibition ([1]; erlotinib as single agent, across its concentration range (up to 10 uM), across the cell line panel) was “no more than 72%”, the “maximal cell growth inhibition response, on average” value ([1]; erlotinib as single agent, average over cell line panel) was “under 50%” and the inhibition at 3 µM ([2]; 3 uM in combination with nucleic-acid based Kras12D inhibitor, pancreatic, colorectal and NSCLC cell lines) was no more than 75%. For the same molecule, the inhibition at 3 µM ([2]; 120 h, single agent, 3 uM, about 5 days) was less than 30%.

With CN(C)C/C=C/C(=O)Nc1cc2c(Nc3ccc(F)c(Cl)c3)ncnc2cc1O[C@H]1CCOC1 [afatinib] the cell growth inhibition ([3]; afatinib as single agent, across its concentration range (up to 1 uM)) was “no more than 86%”, the inhibition at 0.1 µM ([2]; 0.1 uM in combination with nucleic-acid based Kras12D inhibitor, pancreatic, colorectal and NSCLC cell lines) was no more than 75% and the inhibition at 0.1 µM ([2]; 120 h, single agent, 0.1 uM, about 5 days) was less than 30%.

With Cc1c(C#N)cccc1[C@@H](C)Nc1nnc(C)c2cnc(N3CCOCC3)cc12 [SOS inhibitor] the cell growth inhibition ([1]; SOS inhibitor as single agent, across its concentration range (up to 10 uM), across the cell line panel) was “no more than 50%”, the cell growth inhibition ([1]; SOS inhibitor tested alone (FIG. 12 cell lines)) was “no significant cell growth inhibition” and the “degree of synergy of cell growth inhibition (excess over Bliss)” value ([2]; 10 uM SOS inhibitor in combination with nucleic-acid based Kras12D inhibitor (shRNA KRAS), about 5 days) was “robust (>0.2 is robust synergy)”.

For CC(=O)c1c(C)c2cnc(Nc3ccc(N4CCNCC4)cn3)nc2n(C2CCCC2)c1=O [palbociclib], the cell growth inhibition ([3]; CDK4/6 inhibitor (palbociclib) as single agent, across its concentration range (up to 1 uM)) was “no more than 81%”, the “maximal cell growth inhibition, on average” value ([3]; CDK4/6 inhibitor (palbociclib) as single agent) was “about 48%” and the cell growth inhibition ([2]; 0.3 uM CDK4/6 inhibitor (Palbociclib) in combination with nucleic-acid based Kras12D inhibitor) was “up to 79%”.

For Cc1nc(NC(=O)N2CCC[C@H]2C(N)=O)sc1-c1ccnc(C(C)(C)C(F)(F)F)c1 [BYL719], the cell growth inhibition ([3]; PI3Ka inhibitor (BYL719) as single agent, across its concentration range (up to 10 uM)) was “no more than 88%”, the “maximal cell growth inhibition, on average” value ([3]; PI3Ka inhibitor (BYL719) as single agent) was “about 58%” and the cell growth inhibition ([2]; 0.3 uM PI3K-alpha inhibitor (BYL719) in combination with nucleic-acid based Kras12D inhibitor) was “up to 87%”. The “degree of synergy of cell growth inhibition (excess over Bliss)” value ([2]; 0.3 uM PI3K-alpha inhibitor (BYL719) in combination with nucleic-acid based Kras12D inhibitor, 5 days) was “little to moderate”.

In the case of CC(=O)Nc1cccc(-n2c(=O)n(C3CC3)c(=O)c3c(Nc4ccc(I)cc4F)n(C)c(=O)c(C)c32)c1 [Trametinib, trametinib], the cell growth inhibition ([3]; MEK inhibitor as single agent, across its concentration range (up to 0.01 uM)) is reported as “no more than 68%”, the “maximal cell growth inhibition, on average” value ([3]; MEK inhibitor as single agent) is reported as “about 42%” and the inhibition at 0.003 µM ([2]; 3 nM Trametinib in combination with nucleic-acid based Kras12D inhibitor) is reported as no more than 89%. It also gave an inhibition at 0.003 µM ([2]; single agent, 3 nM Trametinib) of less than 50%.

C[C@@H]1OCC2(CCN(c3cnc(Sc4ccnc(N)c4Cl)c(N)n3)CC2)[C@@H]1N [SHP2 inhibitor, (3S,4S)-8-(6-amino-5-((2-amino-3-chloropyridin-4-yl)thio)pyrazin-2-yl)-3-methyl-2-oxa-8-azaspiro[4.5]decan-4-amine] was tested, and the cell growth inhibition ([1]; SHP2 inhibitor as single agent, across its concentration range (up to 10 uM), across the cell line panel) was “no more than 75%”, the “maximal cell growth inhibition, on average” value ([1]; SHP2 inhibitor as single agent, average over cell line panel) was “about 36%” and the “degree of synergy of cell growth inhibition (excess over Bliss)” value ([2]; 1 uM SHP2 inhibitor in combination with nucleic-acid based Kras12D inhibitor (shRNA KRAS), about 5 days) was “moderate (0.1-0.2 moderate synergy)”.
